This is an account of results in patent publication EP4660196A1, “CRYSTAL FORM OF COMPOUND, PREPARATION METHOD THEREFOR AND USE THEREOF” (Felicamed Biotechnology Co., Ltd., priority 2023, dated 2024).

A short description of this data set: Pharmacokinetics of free crystal form A in Beagle dogs (i.v. and intragastric). It counts as in vivo. The following applies: dog. The protocol:
Preparations were administered to the group C on the second day to the seventh day were prepared in the same way as that on the first day.
All the animals in this experiment were randomly divided into 4 groups (3 dogs/sex/group). The animals in the group A, the group B, and the group D were fasted before administration, and the animals in the group C were fasted before the first administration and the last administration. All the animals were fasted for at least 12 h before administration, and food was resumed 4 h after administration. All the animals had free access to water and food during the experiment. Table 25 Animal groups and administration methods
The animals in the group A were intravenously injected with the drug at 2 mg/kg, and blood samples were collected from the jugular vein before and 0.033 h, 0.083 h, 0.25 h, 0.5 h, 1 h, 2 h, 4 h, 8 h, 12 h, and 24 h after administration. The animals in the group B and the group D received single intragastric administration of the drugs at 2 mg/kg and 20 mg/kg, respectively, and blood samples were collected from the jugular vein before and 0.083 h, 0.25 h, 0.5 h, 1 h, 2 h, 4 h, 8 h, 12 h, and 24 h after administration. […] Blood samples were collected from the jugular vein before the first administration and the seventh administration and 0.083 h, 0.25 h, 0.5 h, 1 h, 2 h, 4 h, 8 h, 12 h, and 24 h after administration. Blood samples were collected from the jugular vein before administration and 0.5 h after administration from the second administration to the sixth administration. The sample collected before the second administration was the sample collected 24 h after the first administration.
The blood samples from the animals were collected through the jugular vein, with a blood sample volume of 0.5 mL/time. All collected whole blood samples were placed in centrifuge tubes containing ethylene diamine tetraacetic acid potassium salt (EDTA-K2), and the centrifuge tubes were turned upside down to allow the anticoagulant and blood to be fully mixed. All the samples were placed on wet ice before centrifugation and centrifuged at 1524 g for 10 min to separate plasma. The plasma samples were transferred to new centrifuge tubes and stored at -90°C to […] until analysis.
The drug concentration in the plasma of each Beagle dog was determined by liquid chromatography with tandem mass spectrometry (LC-MS/MS). The obtained plasma concentration data was analyzed by using the pharmacokinetic processing software WinNonlin 8.0 with a non-compartmental model to calculate relevant pharmacokinetic parameters.

Values joined by “and” are separate entries in the source; they are usually repeats but may differ in a detail not shown here. Identical values can stand only once.

With `CC[S@@](=N)(=O)C[C@H]1CC[C@H](N(C)c2ncnc3[nH]ccc23)CC1` [Free crystal form A], where the note is “in vivo”, the “AUC0-t of the unit dose” value is 4380 ng·kg·h/mL/mg and 4990 ng·kg·h/mL/mg and 5030 ng·kg·h/mL/mg; the clinical observation entry is reported as “no obvious abnormalities were found”; the “male-to-female ratio of AUC0-t” value is 1.10 and 0.716 and 0.877; the “male-to-female ratio of Cmax” value is 1.36 and 0.810 and 0.894. Under “in vivo”, the “ratio of AUC0-t of the seventh administration and the first administration” value was 0.887; the “ratio of Cmax of the seventh administration and the first administration” value turned out to be 0.964; the “unit dose AUC0-t ratio of 20 mg/kg and 2 mg/kg” value is 1.15; the “unit dose Cmax” value is 675 kg·ng/mL/mg and 785 kg·ng/mL/mg and 665 kg·ng/mL/mg. For the same compound, under “in vivo”, the “unit dose Cmax ratio of 20 mg/kg and 2 mg/kg” value is 0.985. Also, under “in vivo, iv, 2 mg/kg”, the “steady-state volume of distribution (Vdss) relative to total body fluid volume” value was 1.57 times and the “total clearance (CL) relative to liver blood flow” value stood at 0.110 times. In addition, the Tmax (plasma, po, read-out: average time to peak drug concentration) lay within 0.792 to 1.33 h.
